Reference: US12071402B2, “Immunosuppressant formulations” (Novartis AG, priority 2011, dated 2024)

Experiment: Stability of NVS-A in mixtures with various compounds, 50° C./75% RH, 4 weeks, HPLC assay
Assay type: physicochemical
Details: vial
Experimental: The following Example illustrates the stability of the hemifumarate salt of 1-{4-[1-(4-cyclohexyl-3-trifluoromethyl-benzyloxyimino)-ethyl]-2-ethyl-benzyl}-azetidine-3-carboxylic acid in the presence of various compounds. Mixtures of this API with various compounds were exposed in a sealed vial to conditions of 50° C. temperature and 75% relative humidity for 4 weeks. After 4 weeks, the API degradation and sum of degradation products were assayed.
Assay method: HPLC using agilent […] and a Phenomenex Gemini C18 column. UV detection at 260 nm was used. The mobile phase used was a gradient water-acetonitrile containing 0.2% (v/v) formic acid and 10% (v/v) Triethylamine.

Assay (%)*: 100.2%
Sum of unknown peaks (%)*: 1.86%
Structure (SMILES): CCc1cc(C(C)=NOCc2ccc(C3CCCCC3)c(C(F)(F)F)c2)ccc1CN1CC(C(=O)O)C1 [NVS-A, 1-{4-[1-(4-cyclohexyl-3-trifluoromethyl-benzyloxyimino)-ethyl]-2-ethyl-benzyl}-azetidine-3-carboxylic acid]
